Results as given in patent US20160228575A1, “NARINGENIN COMPLEXES AND METHODS OF USE THEREOF” (THE GENERAL HOSPITAL CORPORATION, priority 2008, published 2016).
Converted amounts (≈) assume the structure as drawn.

Assays:
[1] = guinea pigs, intraperitoneal injection; cited from earlier work
[2] = system: HCV (JFH-1) infection of naïve Huh7.5.1 cells; test: HCV infectivity of cell culture supernatant on naïve Huh7.5.1 cells; assay type: cell-based, Hepatitis C virus; settings: Hepatitis C virus, Huh-7.5.1; supernatant after 24 hours stimulation; naringenin 200 μM, brefeldin A 2.5 μg/ml
Experimental: The infectivity of the secreted HCV particles was measured as previously described (8). Naïve Huh7.5.1 cells were grown to 80% confluence and exposed to cell culture supernatants diluted 10-fold in culture media. Following 1 hour incubation at 37° C., the media was replaced, and the cells were cultured for 3 additional days. Levels of HCV infection were determined by immunofluorescence staining for HCV core protein. The viral titer is expressed as focus forming units per milliliter of supernatant (ffu/ml).

HMGR = HMGR transcription by qPCR in infected Huh7.5.1 cells; assay type: cell-based, human; settings: naringenin 24 hours, infected Huh-7.5.1 cells
physchem = settings: 37 °C, water, thermodynamic from solid, naringenin solubility in water
[3] = biological target: T1, Microsomal triglyceride transfer protein (MTP) (Homo sapiens, UniProt P55157); test: Microsomal triglyceride transfer protein (MTP) activity assay in Huh7.5.1 cell homogenates; assay type: cell-based; settings: Huh-7.5.1, 24 hours stimulation of Huh7.5.1 cells
T1 construct: The MTP assay was performed by incubating 50 μg cellular protein with 10 μl of donor and acceptor solutions; endogenous in cells; host or cells: Huh7.5.1 human hepatoma cells (sonicated homogenate, 50 µg cellular protein)
T1 sequence (P55157 19-894): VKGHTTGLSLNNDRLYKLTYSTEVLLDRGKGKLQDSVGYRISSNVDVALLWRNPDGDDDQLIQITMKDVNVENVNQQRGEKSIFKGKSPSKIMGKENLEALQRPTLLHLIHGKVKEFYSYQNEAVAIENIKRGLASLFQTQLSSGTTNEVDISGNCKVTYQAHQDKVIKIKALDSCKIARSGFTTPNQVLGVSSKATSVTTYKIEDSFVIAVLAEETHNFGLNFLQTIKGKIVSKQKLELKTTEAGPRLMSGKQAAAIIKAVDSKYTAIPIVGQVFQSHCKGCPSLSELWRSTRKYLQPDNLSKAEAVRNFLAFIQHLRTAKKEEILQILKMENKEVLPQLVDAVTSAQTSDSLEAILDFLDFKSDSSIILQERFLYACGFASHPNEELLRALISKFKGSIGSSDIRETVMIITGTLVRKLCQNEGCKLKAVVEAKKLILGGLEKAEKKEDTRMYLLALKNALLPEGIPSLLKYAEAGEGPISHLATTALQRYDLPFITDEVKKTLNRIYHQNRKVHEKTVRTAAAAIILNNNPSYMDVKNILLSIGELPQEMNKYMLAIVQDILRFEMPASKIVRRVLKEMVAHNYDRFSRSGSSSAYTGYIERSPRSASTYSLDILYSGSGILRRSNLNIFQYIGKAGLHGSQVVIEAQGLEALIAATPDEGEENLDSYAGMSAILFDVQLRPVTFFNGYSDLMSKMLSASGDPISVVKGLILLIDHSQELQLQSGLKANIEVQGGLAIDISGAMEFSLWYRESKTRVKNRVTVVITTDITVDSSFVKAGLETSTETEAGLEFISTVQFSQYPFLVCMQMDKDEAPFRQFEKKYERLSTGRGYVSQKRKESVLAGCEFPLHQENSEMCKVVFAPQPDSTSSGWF
T1 sequence (P07237 18-508 partner): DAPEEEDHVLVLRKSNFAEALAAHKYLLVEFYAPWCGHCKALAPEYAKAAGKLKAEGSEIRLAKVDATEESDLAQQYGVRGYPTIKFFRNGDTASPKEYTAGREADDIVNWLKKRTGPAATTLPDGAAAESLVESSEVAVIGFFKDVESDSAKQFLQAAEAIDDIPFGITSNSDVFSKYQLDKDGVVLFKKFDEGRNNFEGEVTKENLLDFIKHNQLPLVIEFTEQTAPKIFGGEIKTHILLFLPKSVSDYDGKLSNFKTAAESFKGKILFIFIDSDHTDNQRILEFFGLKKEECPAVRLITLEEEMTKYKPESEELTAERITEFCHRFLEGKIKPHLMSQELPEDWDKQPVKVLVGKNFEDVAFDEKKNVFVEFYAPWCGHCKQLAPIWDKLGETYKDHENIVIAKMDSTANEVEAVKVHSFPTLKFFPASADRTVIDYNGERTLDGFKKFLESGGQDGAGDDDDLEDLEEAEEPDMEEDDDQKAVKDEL
Experimental: MTP activity was analyzed using an MTP assay kit as previously described (11). The assay is based on a transfer of a fluorescent signal between donor and acceptor particles due to MTP activity. Briefly, confluent Huh7.5.1 cells stimulated with naringenin or carrier control for 24 hours then washed with ice cold PBS and scraped off the dish using a cell scraper. Samples were homogenized by sonication (3×5 sec) in buffer containing protease inhibitors. The MTP assay was performed by incubating 50 μg cellular protein with 10 μl of donor and acceptor solutions in 250 μl total buffer (15 mM Tris pH 7.4; 40 mM NaCl; 1 mM EDTA). Increase in fluoresecent signal was measured over 12 hours at 37° C. at the excitation wavelength of 465 nm and emission wavelength of 538 nm.

Caco-2 cell monolayer = test: Transport across Caco-2 cell monolayer (apical to basolateral); assay type: in vitro ADME; settings: human, Caco-2, 2 h, pH 7.35
Experimental: The Caco-2 cell line is an immortalized line of human epithelial colorectal adenocarcinoma cells, which is widely used by the pharmaceutical industry to predict the absorption rate of candidate drug compounds across the intestinal epithelial cell barrier. Caco-2 cells were grown and allowed to form confluent monolayers on transwell filters for 21 days as previously described^39. In detail, Caco-2, human epithelial colorectal adenocarcinoma cells were cultured in tissue culture flasks (Becton Dickinson and Co., Lincoln Park, N.J.). The growth medium was Dulbecco's modified Eagle's medium supplemented with 10% fetal bovine serum, 1% nonessential amino acids, and 4 mM glutamine without antibiotics. The monolayer cultures were grown in a CO2 incubator (5% CO2) at 37° C. The cells were harvested with 0.25% trypsin and 0.2% EDTA (0.5 to 1 min at 37° C.), resuspended, and seeded into a new flask. Cells between 30 to 53 passages were used.
For the transport studies, Caco-2 cells were seeded on Transwell (0.4-μm pore size, 1-cm^2 growth area; Corning Costar Co.) at a cell density of 1×10^5 cells/filter. Cell growth and maintenance was kept as previously described (98). […] The concentrations of Naringenin or HPbCD-Neringenin were determined as described and plotted as a concentration on the basolateral side vs. time. […]

[4] = 400 mg/day oral, hypercholesterolemic patients; cited from earlier work
actin = test: Actin mRNA level by qPCR in infected Huh7.5.1 cells; assay type: cell-based, human; settings: naringenin 24 hours
Experimental: (§1) Virus samples collected in each experiment were filtered with a 0.45 μm filter and a volume of 100 μL for each sample was heated at 95° C. for 45 min. The reverse transcription reaction step was performed on a Mastercycler epgrdientS (Eppendorf) instrument using Omniscript and Sensiscript RT Kits (Qiagen). Real time PCR was performed on a Light Cycler LC-24 (Idaho Technology), using SuperScript™ III Platinum® CellsDirect Two-Step qRT-PCR Kits (Invitrogen) for quantitative PCR. For reverse transcription step, 2 μL of sample without RNA extraction were used. For real time PCR, 1 μL of the reverse transcription reactions was used. All reactions were performed according to the manufacturer's instructions using the primers detailed in Table 1.

ACAT2 = ACAT2 transcription by qPCR in infected Huh7.5.1 cells; assay type: cell-based, human; settings: naringenin 24 hours, infected Huh-7.5.1 cells
LXRα = LXRα transcription in infected Huh7.5.1 cells; assay type: cell-based, human; settings: short term 24 hours stimulation of Huh7.5.1 cells
Experimental: as §1
PPARα and LXRα are ligand-activated transcription factors which control much of the fasted-to-fed transition and were previously shown to be important in the development of inflammation and insulin resistance. […] Following a short term 24 hours stimulation of Huh7.5.1 cells PPARα transcription increased by 86%, while LXRα was decreased by 25%. PPARα is the target of fibrates and plays a major role in the downregulation of inflammation, increasing sensitivity to insulin, and modulating dyslipidemia.

[5] = system: primary human hepatocytes

## O=C1C[C@@H](c2ccc(O)cc2)Oc2cc(O)cc(O)c21 [naringenin]
[1]
  LD50 (50% kill): 2000 mg/kg
[2]
  inhibition at 200 µM: 79%
HMGR
  reduction of HMGR transcription: 57%±3%
physchem
  solubility: 40 µM (≈ 10.9 µg/mL)
[3]
  inhibition at 200 µM: 58%
Caco-2 cell monolayer
  maximal naringenin concentration in basal chamber: 0.05 mM
[4]
  lowering of LDL levels: 17%
actin
  actin mRNA level: remained unchanged
ACAT2
  reduction of ACAT2 transcription: 55%±7%
LXRα
  decrease of LXRα transcription: 25%
[5]; 24 hours exposure
  concentration up to which naringenin is non-toxic to freshly isolated human hepatocytes: greater than 1000 μM
  naringenin concentration above which human hepatocyte viability dropped significantly: greater than 1000 μl
[5]; human, 24 h, 200 μM
  human hepatocyte viability: 81%±3%
